Assay results as given in patent publication US20070167526A1, “Topical mecamylamine formulations for ocular administration and uses thereof” (priority 2005, published 2007).

Tested on: eyes of New Zealand White rabbits
Test: Pupil diameter, pupillary response and mortality observations after topical ocular instillation in rabbits (Example 10)
Conditions: rabbit; 2 drops of 50 μL topically
Method: The objective of this study was to evaluate the ocular pharmacokinetics of a 2% Mecamylamine in a GELRITE solution up to 6 hours following topical instillation into the eyes of New Zealand White rabbits. Nine New Zealand White female rabbits of minimum age of 9 weeks and weight 2-3 kg were obtained from The Rabbit Source (Ramona, Calif.) were used in the study.
On day 1, 2 drops of 50 μL of mecamylamine or vehicle were administered topically into the appropriate eye(s) of each animal as described in Table 13. The time of each dose administration was recorded.

Question: How did the mortality turn out when CNC1(C)C2CCC(C2)C1(C)C (stereo not shown) [mecamylamine, N-2,3,3-tetramethylbicyclo(2.2.1)heptan-2-amine] was run?
Answer: Its mortality is “no mortality”.
